From patent publication US4005095A, “Substituted thienyl-acetic acid esters” (Innothera, priority 1974, dated 1977) come the findings set out here.

One series in a line: in vivo. The conditions noted are these: mouse, in vivo, ip. The method, then: (§1) The acute toxicity was evaluated by intraperitoneal administration to mice. The products were suspended in a dilute pseudo-solution of carboxymethyl-cellulose.
(§2) The mortality was checked over the course of the 7 days which followed the treatment.

Another series has as its system rat duodenum. As to the kind of experiment: spasmolytic activity, papaverine type (contracting agent barium chloride), technique of MAGNUS. The settings on record: for IC50: Tyrode solution 38° C, concentration causing 50% inhibition of the contraction, compound tested (X), read-out: Spasmolytic activity, papaverine type, ED 50 (X); for Spasmolytic activity, papaverine type, ratio of ED 50 values, reference (R) to compound (X): relative to papaverine hydrochloride. It is filed as cell-based. As to the method: The spasmolytic activity was studied on the rat duodenum (1) or on the guinea pig ileum (2), kept alive in an aerated Tyrode solution heated to 38° C, in accordance with the technique of MAGNUS (Archiv. Ges. Physiol., 1905, 180, 1-71).
(1) The contracting agent used was barium chloride and the reference antagonistic agent was papaverine hydrochloride (R).

The test system of the next series is guinea pig ileum. The experiment in a line: spasmolytic activity, atropine type (contracting agent acetylcholine chloride), technique of MAGNUS. The settings on record: Cavia porcellus, read-out: Spasmolytic activity, atropine type, ED 50 (X).
The subject of the next series is mice. As to the kind of experiment: in vivo. The conditions noted are these: mice, intraperitoneal, mortality over 7 days. As to the method:
as §1, §2

Molecules are shown by their SMILES. Where a name gives a salt, the structure may show the parent alone.

Excerpt for guinea pig ileum: (2) The contracting agent used was acetylcholine chloride and the reference antagonistic agent was atropine sulphate (R).
Again, the activity of the compounds tested (X) was compared with that of the reference agent chosen (R), by calculating the ratio of their ED 50 values.

As for `CCN(CC)CCCOC(=O)C(c1ccc(C)s1)C1CCCCC1` (stereo not shown) [Example 20, 3-Diethylaminopropyl (5-methyl-thienyl-2)-cyclohexyl-acetate (hydrochloride)], the LD50 at 168 h in the series “in vivo” came out at 80 mg/kg. Further, in the series with rat duodenum, the IC50 came out at 1.1 µg/mL and the “Spasmolytic activity, papaverine type, ratio of ED 50 values, reference (R) to compound (X)” value worked out at 5.45. In addition, the IC50 in the series with guinea pig ileum came to 0.009 µg/mL.
Compound `Cc1ccc(C(C(=O)OCCCN2CCCC2)c2ccccc2)s1` (stereo not shown) [Example 21, 3-Pyrrolidino-propyl (5-methyl-thienyl-2)-phenyl-acetate (oxalate)] displayed an LD50 at 168 h in the series “in vivo” of 100 mg/kg. In addition, the IC50 in the series with rat duodenum came to 2.55 µg/mL; with guinea pig ileum it was 0.1 µg/mL. In the series with rat duodenum, the “Spasmolytic activity, papaverine type, ratio of ED 50 values, reference (R) to compound (X)” value is 2.16.
In the series “in vivo”, `CCN(CC)CCCOC(=O)C(c1ccsc1C)C1CCCCC1` (stereo not shown) [Example 22, 3-Diethylaminopropyl (2-methyl-thienyl-3)-cyclohexyl-acetate hydrochloride] yielded an LD50 at 168 h of 80 mg/kg. For the same compound, the IC50 was 0.38 µg/mL in the series on rat duodenum and 0.0115 µg/mL with guinea pig ileum. Besides, the “Spasmolytic activity, papaverine type, ratio of ED 50 values, reference (R) to compound (X)” value with rat duodenum is listed as 19.75.
Taken in the same sequence, the figures for `O=C(OCCN1CCCCC1)C(=C1CCCCC1)c1ccsc1` [Example 23, 2-Piperidino-ethyl cyclohexylidene-(thienyl-3)-acetate (hydrochloride)] were 80 mg/kg, 2.4 µg/mL, 0.39 µg/mL and 1.46.
Taken in the same sequence, the figures for `O=C(OCCCN1CCCCC1)C(=C1CCCCC1)c1ccsc1` [Example 24, 3-Piperidino-propyl cyclohexylidene-(thienyl-3)-acetate hydrochloride] were 150 mg/kg, 0.8 µg/mL, 0.8 µg/mL and 1.56.
Take `CC(C[N+]1(C)CCCC1)OC(=O)C(=C1CCCCC1)c1ccsc1.[I-]` (stereo not shown) [Example 25, 2-Pyrrolidino-isopropyl cyclohexylidene-(thienyl-3)-acetate (mono-iodomethylate)]: the “Acute toxicity in mice, intraperitoneal administration, LD 50” value in the series on mice was 80 mg/kg. Also, in the series with rat duodenum, the “Spasmolytic activity, papaverine type, ratio of ED 50 values, reference (R) to compound (X)” value is listed as 1.

For orientation: LD50 means the dose expected to kill half of the subjects tested. Low values mean a more toxic substance, high ones a less toxic substance.
